Assay results reported in EP0768085A1, “ANTIBACTERIAL AGENT” (DAIICHI PHARMACEUTICAL CO., LTD., priority 1994, dated 1996).
≈ marks a conversion by molar mass, not a printed value.

Key:
[1] = Absorption test, concentration of the compounds in serum by HPLC; assay type: in vivo; details: mouse, mice, 100 mg/kg body weight, oral administration, serum at 1, 3, 5 and 24 hours, read-out: time at which concentration in serum reached a maximum
Protocol: An absorption test was performed using ketonitrile derivatives of the present invention (Compound Nos. […] and 155) on mice by dosing the derivatives in amounts of 100 mg/kg body weight. One, three, five, and 24 hours after administration of the compounds, blood was harvested and serum was separated therefrom. The concentration of the compounds in serum was determined by HPLC. As a result, Compound No. 155 and Compound No. 101 reached a maximum in concentration after 1 hour and 3 hours of administration, respectively.

[2] = in vivo; details: mouse, oral administration, single dose, suspended in aqueous 0.5% CMC solution, male mice, observed for 14 days
Protocol: Acute toxicity (LD50) of a ketonitrile derivative of the present invention (Compound No. 4) was tested using male mice (Slc:ddY, 5 weeks old). To groups of each 5 mice, the compounds suspended in aqueous 0.5% CMC solution were forcibly dosed orally at a single time so that the final dosages of 707, 1,000, 1,414, and 2,000 mg/kg were attained. […] As a result, LD50 value under conditions of oral administration was estimated to be higher than 2,000 mg/kg. Thus, the compound was confirmed to be quite non-toxic.
To groups of each 5 mice, the compounds suspended in aqueous 0.5% CMC solution were forcibly dosed orally at a single time so that the final dosages of 500, 1,000, 1,500, and 2,000 mg/kg were attained. […] As a result, the LD50 value was estimated to be higher than 2,000 mg/kg. Thus, the compounds were confirmed to be quite non-toxic.

[3] = test system: Staphylococcus aureus (209-P); assay: Antibacterial activity (IC), agar as in Example 8 (Example 15, Table 48); assay type: cell-based; details: 18 h
Method in brief: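 Samples in DMSO, diluted with sterile water, incorporated into Mueller-Hinton agar at 1, 10 and 100 µg/ml final. Bacteria seeded at 10^6 CFU/ml and grown 18 h at 37°C. Inhibition read as turbidity; values reported as IC ranges rather than exact MICs.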

[4] = test system: Streptococcus aureus (TI-1); assay: Antibacterial activity (IC), agar as in Example 8 (Example 16, Table 49); assay type: cell-based; details: 18 h
Method in brief: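 Compound at final 100, 10 or 1 µg/ml in Mueller-Hinton agar, inoculated with […] aureus (TI-1) at 10^6 CFU/ml and cultured 37°C for 18 h. Inhibition read from medium turbidity; IC given as 100-10, 10-1 or ≤1 µg/ml ranges from 2-fold dilution.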

[5] = test system: Pasteurella multocida (Kobe-6); assay: Antibacterial activity (IC), agar as in Example 8 (Example 17, Table 50); assay type: cell-based; details: 18 h, origin pig
Method in brief: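 Agar dilution on Mueller-Hinton agar with compound at 100, 10 and 1 µg/ml, inoculated at 10^6 CFU/ml with pig-origin strain Kobe-6. After 18 h at 37 °C, IC scored from turbidity and reported as a band (≤100, ≤10, ≤1 µg/ml).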

[6] = test system: methicillin-resistant Staphylococcus aureus (MRSA) from humans; assay: Antibacterial activity (IC), agar as in Example 8 (Example 19, Table 52); assay type: cell-based; details: 18 h
Method in brief: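 MRSA human isolate at 10^6 CFU/ml on Mueller-Hinton agar containing compound at 100, 10 or 1 µg/ml, grown 18 h at 37 °C. IC is the lowest tested level that inhibited growth, binned as ≤100, ≤10 or ≤1 µg/ml.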

[7] = test system: Enterococcus from fish; assay: Antibacterial activity (IC), agar as in Example 8, media with 1.5% NaCl, 25°C (Example 20, Tables 53-55); assay type: cell-based; details: for MIC: Enterococcus Seriolicida SE94-002
Method in brief: (§1)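 Growth inhibition was scored by turbidity after culture at 25°C, with IC bands set from 2-fold-dilution MIC-equivalents. Samples were tested at final 100, 10 and 1 µg/ml in Mueller-Hinton agar with 1.5% NaCl, seeded with 10^6 CFU/ml of the fish isolates.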

[8] = test system: Pasteurella from fish; assay: as above; assay type: cell-based; details: for MIC: Pasteurella piscicida KP94-02
Method in brief: as §1

[9] = test system: Bordetella bronchiseptica (S1); assay: Antibacterial activity (IC), agar as in Example 8 (Example 18, Table 51); assay type: cell-based; details: 18 h
Protocol: (§2) The antibacterial action was evaluated by the inhibitory concentration (hereinafter abbreviated as IC) at which propagation of the bacteria cultured at 37°C for 18 hours was inhibited. Inhibition was determined by the turbidity of the medium. The expressions "IC≤100", "≤10", and "≤1" indicate that MIC-equivalent values obtained at the succesive […] dilution of the sample are 100-10 µg/ml, 10-1 µg/ml, and not more than 1 µg/ml, respectively. […] (In the subsequent Examples, the same rule applies correspondingly.) Table 39
(§3) A suitable amount of a sample was dissolved in dimethylsulfoxide (DMSO), after which the resulting solution was diluted with the same amount of sterilized distilled water to prepare a bulk sample of 1,000 µg/ml. Separately, a bacterial liquid for the test (methicillin-resistant Staphylococcus aureus (MRSA) isolated from humans) which had been cultured in Mueller-Hinton broth (product of DIFCO) was prepared and inoculated to a Mueller-Hinton agar (product of DIFCO) containing the sample so that the final inoculation amount of 10^6 CFU/ml was achieved. The final concentrations of the samples were 100, 10, and 1 µg/ml.
(§4) After culturing at 37°C for 18 hours, the antibacterial activity was evaluated in terms of IC in a manner similar to that described in Example 4.
(§5) In a manner similar to that described in Example 8, antibacterial activity of the invention compound was determined. The bacterium used for the test was Bordetella bronchiseptica (S1) and Bordetella bronchiseptica (SM2-4).

[10] = test system: Bordetella bronchiseptica (SM2-4); assay: as above; assay type: cell-based; details: 18 h
Protocol: as §2, §3, §4, §5

[11] = Enterococcus Seriolicida KG86050
[12] = Enterococcus Seriolicida MS89060
[13] = Enterococcus Seriolicida MS89064
[14] = Enterococcus Seriolicida MS89066
[15] = Enterococcus Seriolicida MS89068
[16] = Enterococcus Seriolicida SE94-001
[17] = Enterococcus Seriolicida SE94-003
[18] = Enterococcus Seriolicida SE94-004
[19] = Enterococcus Seriolicida SE94-005

Row | Structure (SMILES) | MIC [3] | MIC [4] | MIC [5] | MIC ([6]; MRSA strain 891179) | MIC ([6]; MRSA strain 891185) | MIC ([6]; MRSA strain 891187) | MIC ([6]; MRSA strain 891192) | MIC ([6]; MRSA strain 900048) | MIC ([6]; MRSA strain 900056) | IC ([7]; Enterococcus Seriolicida HI) | IC [7, 11] | IC [7, 12] | IC [7, 13] | IC [7, 14] | IC [7, 15] | IC [7, 16] | MIC [7] | IC [7, 17] | IC [7, 18] | IC [7, 19] | further results
1 | CC(Oc1cccc(Oc2ncc(C(F)(F)F)cc2Cl)c1)C(=O)C(C#N)c1ccc(Cl)c(Cl)c1 (stereo not shown) [Compound No. 101, 4-[3-(3-chloro-5-trifluoromethyl-2-pyridyloxy)phenoxy]-2-(3,4-dichlorophenyl)-3-oxopentanonitrile] | – | – | – | – | – | – | – | – | – | – | – | – | – | – | – | – | – | – | – | – | Tmax [1]: 3 h
2 | CC(Oc1cccc(Oc2ccc(C(F)(F)F)cc2Cl)c1)C(=O)C(C#N)c1ccc(Cl)c(Cl)c1 (stereo not shown) [Compound No. 103, 4-[3-(2-chloro-4-trifluoromethylphenoxy)phenoxy]-2-(3,4-dichlorophenyl)-3-oxopentanonitrile] | ≤ 1 µg/mL | ≤ 1 µg/mL | 1 to 10 µg/mL (≈ 1.89 to 18.9 µM) | ≤ 1 µg/mL | ≤ 1 µg/mL | ≤ 1 µg/mL | ≤ 1 µg/mL | ≤ 1 µg/mL | ≤ 1 µg/mL | ≤ 1 µg/mL | ≤ 1 µg/mL | ≤ 1 µg/mL | ≤ 1 µg/mL | ≤ 1 µg/mL | ≤ 1 µg/mL | ≤ 1 µg/mL | ≤ 1 µg/mL | ≤ 1 µg/mL | ≤ 1 µg/mL | ≤ 1 µg/mL | LD50 at 336 h [2]: > 2000 mg/kg; MIC [8]: 1 to 10 µg/mL (≈ 1.89 to 18.9 µM); IC ([8]; Pasteurella piscicida KP94-04): ≤10 (10-1 µg/ml); IC ([8]; Pasteurella piscicida KP94-05): ≤10 (10-1 µg/ml); IC ([8]; Pasteurella piscicida KP94-06): ≤10 (10-1 µg/ml)
3 | CC(Oc1cc(Oc2ccc(C(F)(F)F)cc2Cl)ccc1Cl)C(=O)C(C#N)c1cccc(Br)c1 (stereo not shown) [Compound No. 155, 2-(3-bromophenyl)-4-[5-(2-chloro-4-trifluoromethylphenoxy)-2-chlorophenoxy]-3-oxopentanonitrile] | ≤ 1 µg/mL | ≤ 1 µg/mL | 10 to 100 µg/mL (≈ 17.4 to 174 µM) | ≤ 1 µg/mL | ≤ 1 µg/mL | ≤ 1 µg/mL | ≤ 1 µg/mL | ≤ 1 µg/mL | ≤ 1 µg/mL | ≤ 1 µg/mL | ≤ 1 µg/mL | ≤ 1 µg/mL | ≤ 1 µg/mL | ≤ 1 µg/mL | ≤ 1 µg/mL | ≤ 1 µg/mL | ≤ 1 µg/mL | ≤ 1 µg/mL | ≤ 1 µg/mL | ≤ 1 µg/mL | LD50 at 336 h [2]: > 2000 mg/kg; Tmax [1]: 1 h; MIC [9]: 10 to 100 µg/mL (≈ 17.4 to 174 µM); MIC [10]: 10 to 100 µg/mL (≈ 17.4 to 174 µM); MIC [8]: 10 to 100 µg/mL (≈ 17.4 to 174 µM); IC ([8]; Pasteurella piscicida KP94-04): ≤100 (MIC-equivalent values obtained at the succesive 2-fold dilution of the sample are 100-10 µg/ml); IC ([8]; Pasteurella piscicida KP94-05): ≤100 (MIC-equivalent values obtained at the succesive 2-fold dilution of the sample are 100-10 µg/ml); IC ([8]; Pasteurella piscicida KP94-06): ≤100 (MIC-equivalent values obtained at the succesive 2-fold dilution of the sample are 100-10 µg/ml)
4 | CC(Oc1cc(Cl)cc(Oc2ccc(C(F)(F)F)cc2Cl)c1)C(=O)C(C#N)c1ccc(Cl)c(Cl)c1 (stereo not shown) [compound 212] | ≤ 1 µg/mL | ≤ 1 µg/mL | 1 to 10 µg/mL (≈ 1.78 to 17.8 µM) | ≤ 1 µg/mL | ≤ 1 µg/mL | ≤ 1 µg/mL | ≤ 1 µg/mL | ≤ 1 µg/mL | ≤ 1 µg/mL | ≤ 1 µg/mL | ≤ 1 µg/mL | ≤ 1 µg/mL | ≤ 1 µg/mL | ≤ 1 µg/mL | ≤ 1 µg/mL | ≤ 1 µg/mL | ≤ 1 µg/mL | ≤ 1 µg/mL | ≤ 1 µg/mL | ≤ 1 µg/mL | MIC [9]: 10 to 100 µg/mL (≈ 17.8 to 178 µM); MIC [10]: 10 to 100 µg/mL (≈ 17.8 to 178 µM); MIC [8]: 1 to 10 µg/mL (≈ 1.78 to 17.8 µM); IC ([8]; Pasteurella piscicida KP94-04): ≤10 (10-1 µg/ml); IC ([8]; Pasteurella piscicida KP94-05): ≤10 (10-1 µg/ml); IC ([8]; Pasteurella piscicida KP94-06): ≤10 (10-1 µg/ml)
5 | CC(Oc1cc(Cl)cc(Oc2ccc(C(F)(F)F)cc2Cl)c1)C(=O)C(C#N)c1cccc(Br)c1 (stereo not shown) [compound 213] | 1 to 10 µg/mL (≈ 1.74 to 17.4 µM) | 1 to 10 µg/mL (≈ 1.74 to 17.4 µM) | 1 to 10 µg/mL (≈ 1.74 to 17.4 µM) | 1 to 10 µg/mL (≈ 1.74 to 17.4 µM) | ≤ 1 µg/mL | ≤ 1 µg/mL | ≤ 1 µg/mL | 1 to 10 µg/mL (≈ 1.74 to 17.4 µM) | 1 to 10 µg/mL (≈ 1.74 to 17.4 µM) | ≤ 1 µg/mL | ≤ 1 µg/mL | ≤ 1 µg/mL | ≤ 1 µg/mL | ≤ 1 µg/mL | ≤ 1 µg/mL | ≤ 1 µg/mL | ≤ 1 µg/mL | ≤ 1 µg/mL | ≤ 1 µg/mL | ≤ 1 µg/mL | MIC [9]: 10 to 100 µg/mL (≈ 17.4 to 174 µM); MIC [10]: 10 to 100 µg/mL (≈ 17.4 to 174 µM); MIC [8]: 1 to 10 µg/mL (≈ 1.74 to 17.4 µM); IC ([8]; Pasteurella piscicida KP94-04): ≤10 (10-1 µg/ml); IC ([8]; Pasteurella piscicida KP94-05): ≤10 (10-1 µg/ml); IC ([8]; Pasteurella piscicida KP94-06): ≤10 (10-1 µg/ml)
